Results from PubChem BioAssay AID1745844 (Carcinogenic Potency Database (CPDB), 2022).
Active and inactive are the calls of the source. No rule for the calls is given here.

Test system: rodent lifetime carcinogenesis bioassay, tumor incidence TD50
Assay: chronic cancer bioassays in animals – CPDB, compiled studies (AID 1745844)
[1] = mouse, strain B6AKF1, females, oral dosing, site: any site (literature study), lesion: several types, types named in the paper, dosed 76 weeks, study length 76 weeks
[2] = mouse, strain B6AKF1, females, oral dosing, site: liver, lesion: hepatoma, dosed 76 weeks, study length 76 weeks
[3] = mouse, strain B6AKF1, females, oral dosing, site: lung, lesion: adenoma, dosed 76 weeks, study length 76 weeks
[4] = mouse, strain B6AKF1, males, oral dosing, site: any site (literature study), lesion: several types, types named in the paper, dosed 76 weeks, study length 76 weeks
[5] = mouse, strain B6AKF1, males, oral dosing, site: liver, lesion: hepatoma, dosed 76 weeks, study length 76 weeks
[6] = mouse, strain B6AKF1, males, oral dosing, site: lung, lesion: adenoma, dosed 76 weeks, study length 76 weeks
[7] = mouse, strain B6C3F1, females, oral dosing, site: any site (literature study), lesion: several types, types named in the paper, dosed 76 weeks, study length 76 weeks
[8] = mouse, strain B6C3F1, females, oral dosing, site: liver, lesion: hepatoma, dosed 76 weeks, study length 76 weeks
[9] = mouse, strain B6C3F1, females, oral dosing, site: lung, lesion: adenoma, dosed 76 weeks, study length 76 weeks
[10] = mouse, strain B6C3F1, males, oral dosing, site: any site (literature study), lesion: several types, types named in the paper, dosed 76 weeks, study length 76 weeks
[11] = mouse, strain B6C3F1, males, oral dosing, site: liver, lesion: hepatoma, dosed 76 weeks, study length 76 weeks
[12] = mouse, strain B6C3F1, males, oral dosing, site: lung, lesion: adenoma, dosed 76 weeks, study length 76 weeks

## C=COC(C)=O
mouse, strain Charles River CD1, males, inhaled, site: lung, lesion: squamous-cell carcinoma, dosed 104 weeks, study length 104 weeks
  TD50: 32000 mg/kg/day
mouse, strain Swiss, females, in drinking water, site: Zymbal's gland, lesion: carcinoma, dosed 78 weeks, study length 151 weeks
  TD50: 36000 mg/kg/day
mouse, strain Swiss, females, in drinking water, site: any site (literature study), lesion: benign tumor, dosed 78 weeks, study length 151 weeks
  TD50: 2030 mg/kg/day
mouse, strain Swiss, females, in drinking water, site: any site (literature study), lesion: malignant tumor, dosed 78 weeks, study length 151 weeks
  TD50: 3440 mg/kg/day
mouse, strain Swiss, females, in drinking water, site: esophagus, lesion: acanthoma, dosed 78 weeks, study length 151 weeks
  TD50: 36000 mg/kg/day
mouse, strain Swiss, females, in drinking water, site: esophagus, lesion: squamous-cell carcinoma, dosed 78 weeks, study length 151 weeks
  TD50: 5640 mg/kg/day
mouse, strain Swiss, females, in drinking water, site: forestomach, lesion: acanthoma, dosed 78 weeks, study length 151 weeks
  TD50: 6850 mg/kg/day
mouse, strain Swiss, females, in drinking water, site: forestomach, lesion: squamous-cell carcinoma, dosed 78 weeks, study length 151 weeks
  TD50: 11700 mg/kg/day
mouse, strain Swiss, females, in drinking water, site: lung, lesion: adenocarcinoma, dosed 78 weeks, study length 151 weeks
  TD50: 29900 mg/kg/day
mouse, strain Swiss, females, in drinking water, site: lung, lesion: adenoma, dosed 78 weeks, study length 151 weeks
  TD50: 11700 mg/kg/day
mouse, strain Swiss, females, in drinking water, site: lung, lesion: several types, types named in the paper, dosed 78 weeks, study length 151 weeks
  TD50: 7640 mg/kg/day
mouse, strain Swiss, females, in drinking water, site: oral cavity, lesion: squamous-cell carcinoma, dosed 78 weeks, study length 151 weeks
  TD50: 36000 mg/kg/day
mouse, strain Swiss, females, in drinking water, site: stomach, lesion: adenocarcinoma, dosed 78 weeks, study length 151 weeks
  TD50: 36000 mg/kg/day
mouse, strain Swiss, females, in drinking water, site: tongue, lesion: squamous-cell carcinoma, dosed 78 weeks, study length 151 weeks
  TD50: 8760 mg/kg/day
mouse, strain Swiss, females, in drinking water, site: uterus, lesion: adenocarcinoma, dosed 78 weeks, study length 151 weeks
  TD50: 5570 mg/kg/day
mouse, strain Swiss, females, in drinking water, site: uterus, lesion: leiomyoma, dosed 78 weeks, study length 151 weeks
  TD50: 26100 mg/kg/day
mouse, strain Swiss, females, in drinking water, site: uterus, lesion: leiomyosarcoma, dosed 78 weeks, study length 151 weeks
  TD50: 26100 mg/kg/day
mouse, strain Swiss, females, in drinking water, site: uterus, lesion: malignant tumor, dosed 78 weeks, study length 151 weeks
  TD50: 3920 mg/kg/day
mouse, strain Swiss, males, in drinking water, site: any site (literature study), lesion: benign tumor, dosed 78 weeks, study length 135 weeks
  TD50: 6040 mg/kg/day
mouse, strain Swiss, males, in drinking water, site: any site (literature study), lesion: malignant tumor, dosed 78 weeks, study length 135 weeks
  TD50: 552 mg/kg/day
mouse, strain Swiss, males, in drinking water, site: forestomach, lesion: acanthoma, dosed 78 weeks, study length 135 weeks
  TD50: 9330 mg/kg/day
mouse, strain Swiss, males, in drinking water, site: lung, lesion: adenocarcinoma, dosed 78 weeks, study length 135 weeks
  TD50: 68200 mg/kg/day
mouse, strain Swiss, males, in drinking water, site: lung, lesion: adenoma, dosed 78 weeks, study length 135 weeks
  TD50: 5750 mg/kg/day
mouse, strain Swiss, males, in drinking water, site: lung, lesion: several types, types named in the paper, dosed 78 weeks, study length 135 weeks
  TD50: 28000 mg/kg/day
mouse, strain Swiss, males, in drinking water, site: oral cavity, lesion: squamous-cell carcinoma, dosed 78 weeks, study length 135 weeks
  TD50: 9330 mg/kg/day
mouse, strain Swiss, males, in drinking water, site: stomach, lesion: adenocarcinoma, dosed 78 weeks, study length 135 weeks
  TD50: 9330 mg/kg/day
mouse, strain Swiss, males, in drinking water, site: tongue, lesion: squamous-cell carcinoma, dosed 78 weeks, study length 135 weeks
  TD50: 9330 mg/kg/day
rat, strain Charles River CD (Sprague-Dawley), females, inhaled, site: larynx, lesion: squamous-cell carcinoma, dosed 104 weeks, study length 104 weeks
  TD50: 9050 mg/kg/day
rat, strain Charles River CD (Sprague-Dawley), females, inhaled, site: nose, lesion: squamous-cell carcinoma, dosed 104 weeks, study length 104 weeks
  TD50: 2220 mg/kg/day
rat, strain Charles River CD (Sprague-Dawley), males, inhaled, site: nose, lesion: benign tumor, dosed 104 weeks, study length 104 weeks
  TD50: 1240 mg/kg/day
rat, strain Charles River CD (Sprague-Dawley), males, inhaled, site: nose, lesion: carcinoma, in situ, dosed 104 weeks, study length 104 weeks
  TD50: 6310 mg/kg/day
rat, strain Charles River CD (Sprague-Dawley), males, inhaled, site: nose, lesion: malignant tumor, dosed 104 weeks, study length 104 weeks
  TD50: 2080 mg/kg/day
rat, strain Charles River CD (Sprague-Dawley), males, inhaled, site: nose, lesion: papilloma, inverted, dosed 104 weeks, study length 104 weeks
  TD50: 1550 mg/kg/day
rat, strain Charles River CD (Sprague-Dawley), males, inhaled, site: nose, lesion: several types, types named in the paper, dosed 104 weeks, study length 104 weeks
  TD50: 758 mg/kg/day
rat, strain Charles River CD (Sprague-Dawley), males, inhaled, site: nose, lesion: squamous-cell carcinoma, dosed 104 weeks, study length 104 weeks
  TD50: 3140 mg/kg/day
rat, strain Fischer 344, females, in drinking water, site: liver, lesion: neoplastic nodule, dosed 100 weeks, study length 130 weeks
  TD50: 488 mg/kg/day
rat, strain Fischer 344, females, in drinking water, site: thyroid gland, lesion: c-cell adenoma, dosed 100 weeks, study length 130 weeks
  TD50: 420 mg/kg/day
rat, strain Fischer 344, females, in drinking water, site: thyroid gland, lesion: c-cell carcinoma, dosed 100 weeks, study length 130 weeks
  TD50: 25500 mg/kg/day
rat, strain Fischer 344, females, in drinking water, site: uterus, lesion: adenocarcinoma, dosed 100 weeks, study length 130 weeks
  TD50: 494 mg/kg/day
rat, strain Fischer 344, males, in drinking water, site: any site (literature study), lesion: several types, types named in the paper, dosed 100 weeks, study length 130 weeks
  TD50: 57.7 mg/kg/day
rat, strain Fischer 344, males, in drinking water, site: liver, lesion: neoplastic nodule, dosed 100 weeks, study length 130 weeks
  TD50: 132 mg/kg/day
rat, strain Fischer 344, males, in drinking water, site: thyroid gland, lesion: c-cell carcinoma, dosed 100 weeks, study length 130 weeks
  carcinogen call: positive

## Nc1nnc(-c2ccc([N+](=O)[O-])o2)s1
rat, strain Sprague-Dawley, females, in feed, site: any site (literature study), lesion: several types, types named in the paper, dosed 45 weeks, study length 66 weeks
  TD50: 0.662 mg/kg/day
rat, strain Sprague-Dawley, females, in feed, site: forestomach, lesion: squamous-cell papilloma, dosed 45 weeks, study length 66 weeks
  TD50: 23.7 mg/kg/day
rat, strain Sprague-Dawley, females, in feed, site: kidney/pelvis, lesion: transitional-cell carcinoma, dosed 45 weeks, study length 66 weeks
  TD50: 73.4 mg/kg/day
rat, strain Sprague-Dawley, females, in feed, site: lung, lesion: alveolar-cell carcinoma, dosed 45 weeks, study length 66 weeks
  TD50: 73.4 mg/kg/day
rat, strain Sprague-Dawley, females, in feed, site: mammary gland, lesion: adenocarcinoma, dosed 45 weeks, study length 66 weeks
  TD50: 1.2 mg/kg/day
rat, strain Sprague-Dawley, females, in feed, site: mammary gland, lesion: several types, types named in the paper, dosed 45 weeks, study length 66 weeks
  TD50: 0.662 mg/kg/day

## CN(C)Nc1nc(-c2ccc([N+](=O)[O-])o2)cs1
rat, strain Sprague-Dawley, females, in feed, site: all sites, lesion: lymphoblastic lymphoma, dosed 46 weeks, study length 66 weeks
  TD50: 16.3 mg/kg/day
rat, strain Sprague-Dawley, females, in feed, site: mammary gland, lesion: adenocarcinoma, dosed 46 weeks, study length 66 weeks
  TD50: 0.391 mg/kg/day
rat, strain Sprague-Dawley, females, in feed, site: mammary gland, lesion: several types, types named in the paper, dosed 46 weeks, study length 66 weeks
  carcinogen call: positive

## c1ccc2sc(SN3CCOCC3)nc2c1
[1]
  TD50: 1310 mg/kg/day (inactive)
[2]
  carcinogen call: negative (inactive)
[3]
  carcinogen call: negative (inactive)
[4]
  carcinogen call: negative (inactive)
[5]
  TD50: 20100 mg/kg/day (inactive)
[6]
  carcinogen call: negative (inactive)
[7]
  TD50: 386 mg/kg/day (inactive)
[8]
  TD50: 1230 mg/kg/day (inactive)
[9]
  TD50: 598 mg/kg/day (inactive)
[10]
  TD50: 200 mg/kg/day (inactive)
[11]
  TD50: 359 mg/kg/day (inactive)
[12]
  TD50: 556 mg/kg/day (inactive)

## CCN=[N+]([O-])CC
rat, strain Fischer 344, males, in drinking water, site: esophagus, lesion: several types, types named in the paper, dosed 30 weeks, study length 55 weeks
  TD50: 0.0302 mg/kg/day
rat, strain Fischer 344, males, in drinking water, site: liver, lesion: hemangiosarcoma, dosed 30 weeks, study length 55 weeks
  TD50: 0.0347 mg/kg/day
rat, strain Fischer 344, males, in drinking water, site: liver, lesion: hepatocellular carcinoma, dosed 30 weeks, study length 55 weeks
  TD50: 0.0347 mg/kg/day
rat, strain Fischer 344, males, in drinking water, site: liver, lesion: neurosarcoma, dosed 30 weeks, study length 55 weeks
  TD50: 0.0971 mg/kg/day
rat, strain Fischer 344, males, in drinking water, site: liver, lesion: several types, types named in the paper, dosed 30 weeks, study length 55 weeks
  carcinogen call: positive
rat, strain Fischer 344, males, in drinking water, site: nasal cavity, lesion: several types, types named in the paper, dosed 30 weeks, study length 55 weeks
  TD50: 0.022 mg/kg/day

## Nc1c(Cl)c(Cl)nc(C(=O)O)c1Cl
mouse, strain B6C3F1, females, in feed, site: any site (literature study), lesion: several types, types named in the paper, dosed 80 weeks, study length 90 weeks
  carcinogen call: negative (inactive)
mouse, strain B6C3F1, females, in feed, site: liver, lesion: hepatocellular adenoma + hepatocellular carcinoma + neoplastic nodule, dosed 80 weeks, study length 90 weeks
  TD50: 20100 mg/kg/day
mouse, strain B6C3F1, males, in feed, site: any site (literature study), lesion: several types, types named in the paper, dosed 80 weeks, study length 90 weeks
  carcinogen call: negative (inactive)
rat, strain Fischer 344, females, in feed, site: liver, lesion: hepatocellular adenoma, dosed 104 weeks, study length 104 weeks
  TD50: 15800 mg/kg/day (inactive)
rat, strain Fischer 344, females, in feed, site: thyroid gland, lesion: parafollicular-cell adenoma, dosed 104 weeks, study length 104 weeks
  carcinogen call: negative (inactive)
rat, strain Fischer 344, males, in feed, site: liver, lesion: hepatocellular adenoma, dosed 104 weeks, study length 104 weeks
  TD50: 5560 mg/kg/day (inactive)
rat, strain Fischer 344, males, in feed, site: liver, lesion: hepatocellular carcinoma, dosed 104 weeks, study length 104 weeks
  TD50: 8710 mg/kg/day (inactive)
rat, strain Osborne-Mendel, females, in feed, site: any site (literature study), lesion: several types, types named in the paper, dosed 80 weeks, study length 113 weeks
  carcinogen call: negative (inactive)
rat, strain Osborne-Mendel, females, in feed, site: liver, lesion: hepatocellular adenoma + hepatocellular carcinoma + neoplastic nodule, dosed 80 weeks, study length 113 weeks
  TD50: 1640 mg/kg/day
rat, strain Osborne-Mendel, females, in feed, site: liver, lesion: neoplastic nodule, dosed 80 weeks, study length 111 weeks
  TD50: 1700 mg/kg/day
rat, strain Osborne-Mendel, males, in feed, site: any site (literature study), lesion: several types, types named in the paper, dosed 80 weeks, study length 113 weeks
  TD50: 2930 mg/kg/day (inactive)
rat, strain Osborne-Mendel, males, in feed, site: liver, lesion: hepatocellular adenoma + hepatocellular carcinoma + neoplastic nodule, dosed 80 weeks, study length 113 weeks
  TD50: 1320 mg/kg/day

## CCCCN(CCCC)C(=S)[S-].CCCCN(CCCC)C(=S)[S-].[Zn+2]
[1]
  TD50: 2330 mg/kg/day (inactive)
[2]
  carcinogen call: negative (inactive)
[3]
  TD50: 1090 mg/kg/day (inactive)
[4]
  carcinogen call: negative (inactive)
[5]
  carcinogen call: negative (inactive)
[6]
  carcinogen call: negative (inactive)
[7]
  TD50: 731 mg/kg/day (inactive)
[8]
  carcinogen call: negative (inactive)
[9]
  TD50: 2330 mg/kg/day (inactive)
[10]
  TD50: 252 mg/kg/day (inactive)
[11]
  TD50: 680 mg/kg/day (inactive)
[12]
  TD50: 1050 mg/kg/day (inactive)
